We go through 8 compounds from ChEMBL document CHEMBL1201862, “PubChem BioAssay data set” (2004).

Among the test systems are HOP-62; OVCAR-5; KM12; U-251; XF498; NCI/ADR-RES; EKVX; OVCAR-4; CCRF-CEM; SK-MEL-28; SK-OV-3; SNB-75; NCI-H226; UO-31; RXF 393; ACHN; CAKI-1; SR; RPMI-8226; SW-620.
What all share (assay): NCI anticancer screen, dose series, 48 h

The structures appear in SMILES notation.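 Values below derive from 48-hour exposures of cells grown in 96-well plates, with endpoints linearly interpolated between the two concentrations bracketing the appropriate inhibition level. Here, GI50 denotes the concentration required for 50% inhibition of growth.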 Active and inactive are the calls of the source. Rule as the data show it: active = GI50 up to about 1.1 µM and inactive = higher.

For `NC(=O)C(=O)n1ncc(Cl)c(Cl)c1=O`, the GI50 is > 100 µM (inactive) in the test with HOP-62; 37.5 µM (inactive) in the test with OVCAR-5; 34.1 µM (inactive) in the test on KM12; > 40.7 µM (inactive) in the test on U-251; 17 µM (inactive) with XF498; 24.4 µM (inactive) with NCI/ADR-RES. Also, the GI50 is 39.2 µM (inactive) in the test on EKVX; 29.4 µM (inactive) with OVCAR-4; 6.03 µM (inactive) with CCRF-CEM; 23.5 µM (inactive) with SK-MEL-28; > 100 µM (inactive) in the test on SK-OV-3; > 42.8 µM (inactive) with SNB-75. Further, the GI50 in the test on NCI-H226 was > 69.5 µM (inactive); in the test on UO-31 it was 32.7 µM (inactive); with RXF 393 it was > 23.5 µM (inactive); in the test with ACHN, 24.4 µM (inactive); in the test with CAKI-1 it was 22.8 µM (inactive); in the test on SR it was 19.2 µM (inactive). Further, the GI50 in the test on RPMI-8226 was 11.7 µM (inactive); with SW-620, 13.3 µM (inactive).

For the compound `COC(=O)C1=C(O)C(O)=C(C(=O)OC)CC1`, the GI50 with HOP-62, in the test with OVCAR-5, in the test on KM12, in the test with U-251, in the test on XF498 and in the test with EKVX was > 100 µM (inactive) in each case. Besides, the GI50 in the test with OVCAR-4, with CCRF-CEM, in the test with SK-MEL-28, in the test with SK-OV-3, in the test on SNB-75 and with NCI-H226 was > 100 µM (inactive) each time. Further, the GI50 in the test on UO-31 is > 100 µM (inactive); in the test on RXF 393, 17.9 µM (inactive); in the test with ACHN it was > 100 µM (inactive); with CAKI-1, > 100 µM (inactive); in the test with SR, > 100 µM (inactive); in the test on RPMI-8226, > 100 µM (inactive). Besides, in the test on SW-620, the GI50 is > 100 µM (inactive).

With `COc1ccc(Nc2nc3c(N)cc(C(F)(F)F)cc3nc2-c2ccccc2)cc1`, the GI50 in the test with HOP-62 is 83.2 µM (inactive); in the test with OVCAR-5, > 100 µM (inactive); in the test on KM12, 83 µM (inactive); in the test on U-251, 83.2 µM (inactive); in the test on XF498 it was 31.7 µM (inactive); with EKVX, 61.9 µM (inactive). Besides, the GI50 is 37.2 µM (inactive) in the test on OVCAR-4; > 100 µM (inactive) in the test on CCRF-CEM; > 100 µM (inactive) in the test with SK-MEL-28; 83 µM (inactive) in the test on SK-OV-3; 28.8 µM (inactive) with SNB-75; 68.9 µM (inactive) in the test with NCI-H226. Besides, the GI50 in the test on UO-31 was > 100 µM (inactive); with RXF 393, 27.2 µM (inactive); in the test on ACHN, > 100 µM (inactive); in the test on CAKI-1 it was > 100 µM (inactive); with SR, 21.9 µM (inactive); with SW-620 it was > 100 µM (inactive).

As to `N#CC(C#N)=C1SCC(=O)CS1`, the GI50 in the test on HOP-62, in the test on OVCAR-5, with KM12, in the test on U-251, with XF498 and in the test with EKVX was > 100 µM (inactive) each time. Also, the GI50 in the test on OVCAR-4 was > 100 µM (inactive); in the test with CCRF-CEM, > 100 µM (inactive); with SK-OV-3, > 100 µM (inactive); in the test on SNB-75 it was 89.1 µM (inactive); in the test on NCI-H226 it was > 100 µM (inactive); in the test on UO-31 it was > 100 µM (inactive). Further, the GI50 with RXF 393, in the test with CAKI-1, with SR, in the test with RPMI-8226 and with SW-620 was > 100 µM (inactive) each time.

In the case of `CC1(C)OCC(CO)(Nc2nc(N3CC3)nc(N3CC3)n2)CO1`, the GI50 is 5.53 µM (inactive) in the test with HOP-62; 20 µM (inactive) in the test with OVCAR-5; 16.3 µM (inactive) in the test with KM12; 4.04 µM (inactive) in the test with U-251; 14.3 µM (inactive) in the test on XF498; 32 µM (inactive) with EKVX. Also, the GI50 with OVCAR-4 is 18.8 µM (inactive); with CCRF-CEM it was 1.16 µM (inactive); in the test on SK-MEL-28, 19.5 µM (inactive); in the test with SK-OV-3, 5.78 µM (inactive); in the test with SNB-75 it was 6.58 µM (inactive); in the test on NCI-H226, 8.13 µM (inactive). For the same compound, the GI50 in the test with UO-31 is 8.95 µM (inactive); with RXF 393, 13.2 µM (inactive); in the test with ACHN, 1.42 µM (inactive); in the test with CAKI-1 it was 1.52 µM (inactive); in the test with SR it was 0.483 µM (active); with RPMI-8226, 16.1 µM (inactive). Further, the GI50 in the test with SW-620 is 14.5 µM (inactive).

As to `CC(C)(C)NNC(=O)/C(=C/c1ccc([N+](=O)[O-])cc1)NC(=O)c1ccccc1`, the GI50 was > 100 µM (inactive) in the test on HOP-62; > 100 µM (inactive) with OVCAR-5; > 100 µM (inactive) with KM12; 39 µM (inactive) with U-251; > 100 µM (inactive) with XF498; > 100 µM (inactive) in the test with EKVX. The GI50 in the test with OVCAR-4 was 75 µM (inactive); in the test with CCRF-CEM, 31.3 µM (inactive); in the test on SK-MEL-28, > 100 µM (inactive); in the test on SK-OV-3, > 100 µM (inactive); with SNB-75, > 100 µM (inactive); in the test on NCI-H226, 24.2 µM (inactive). For the same compound, the GI50 with UO-31 is > 100 µM (inactive); with RXF 393, > 100 µM (inactive); in the test on ACHN, > 100 µM (inactive); in the test with CAKI-1, > 100 µM (inactive); with SR, 21.6 µM (inactive); in the test with RPMI-8226 it was 45 µM (inactive).

Take `C=Cc1c(-c2ccccc2)cnc2[nH]c3ccccc3c12`: the GI50 in the test on HOP-62 is > 50 µM (inactive); with OVCAR-5 it was > 50 µM (inactive); in the test on KM12, 2.43 µM (inactive); in the test with U-251, > 50 µM (inactive); in the test on XF498 it was > 50 µM (inactive); with EKVX, 3.4 µM (inactive). For the same compound, the GI50 was > 50 µM (inactive) in the test on OVCAR-4; > 50 µM (inactive) in the test on CCRF-CEM; > 50 µM (inactive) in the test with SK-MEL-28; > 50 µM (inactive) with SK-OV-3; 6.59 µM (inactive) with SNB-75; > 50 µM (inactive) in the test with UO-31. For the same compound, the GI50 with RXF 393, in the test with ACHN, in the test with CAKI-1, in the test on SR, in the test on RPMI-8226 and with SW-620 was > 50 µM (inactive) in each case.

Take `O=C(COC(=O)c1cccc2c(=O)c3ccccc3[nH]c12)Nc1ccc(Cl)cc1`: the GI50 with HOP-62 is 22.1 µM (inactive); with KM12 it was 28.9 µM (inactive); in the test with U-251, 24.9 µM (inactive); in the test with XF498 it was 46.8 µM (inactive); with EKVX, 8.28 µM (inactive); in the test on OVCAR-4, 95.9 µM (inactive). For the same compound, the GI50 is 54 µM (inactive) in the test with CCRF-CEM; > 100 µM (inactive) in the test on SK-MEL-28; 82.8 µM (inactive) in the test on SK-OV-3; 24.3 µM (inactive) with SNB-75; 72.8 µM (inactive) in the test on NCI-H226; 9.64 µM (inactive) in the test with UO-31. In addition, the GI50 is 16.8 µM (inactive) in the test on RXF 393; 32.8 µM (inactive) in the test on ACHN; > 100 µM (inactive) with CAKI-1; 19.7 µM (inactive) with SR; 85.5 µM (inactive) in the test on SW-620.
